Results from patent US5246989A, “Photochromic compound, composition and use thereof” (priority 1990, dated 1993).

Assay: Photochromic characteristics of cast polymethyl methacrylate film (coloration under mercury lamp, fading)
Format: physicochemical
Conditions: PMMA film, 1.0×10^-4 mol/g, 0.1 mm, 35° C.; for t1/2 (half-value period of absorbance after irradiation): after 60 seconds' irradiation; for λ max (maximum absorption wavelength of the colored film) / ε (60 seconds)-ε (0 second): mercury lamp 60 seconds; for ε (60 seconds)-ε (0 second): absorbance at λmax
Procedure: The compound synthesized in Example 1, which was represented by the following formula: [drawing 286] was dissolved and dispersed in polymethyl methacrylate with the aid of benzene, and a cast film was prepared on a slide glass sheet (11.2 cm×3.7 cm) so that the concentration of the compound in the film was 1.0×10^-4 mol/g and the thickness of the film was 0.1 mm. The photochromic film was irradiated with rays of a mercury lamp (SHL-100 supplied by Toshiba) located 10 cm apart from the film at 35° C.+1° C. for 60 seconds to effect coloration in the film, and the photochromic characteristics were examined with respect to items described below.
Maximum absorption wavelength (λmax):
The maximum absorption wavelength λmax of the colored film was determined by using a spectrophotometer (220 A supplied by Hitachi).
After 60 seconds' irradiation under the above-mentioned conditions, the absorbance at the maximum absorption wavelength was measured.
The absorbance at the maximum absorption wavelength of the unirradiated film was measured. Half-value period t^1/2 :
After 60 seconds' irradiation, the time required for reduction of the absorbance of the film to 1/2 of [ε(60 seconds)-ε(0 second)] was measured.

Row | SMILES | t1/2 (half-value period of absorbance after irradiation) [s] | λ max (maximum absorption wavelength of the colored film) | ε (60 seconds)-ε (0 second)
1 | CN1c2ccc(Cl)cc2C2(C3CC4CC(C3)CC2C4)C12C=Nc1cc(N3CCCCC3)c3ncccc3c1O2 (centres unmarked) [Compound 9] | 17 | 605 | 1.2
2 | COC(=O)CN1c2ccc(N(C)C)cc2C2(CCCCC2)C12C=Nc1cc(Br)c3ccccc3c1O2 (centres unmarked) [Compound 11] | 17 | 607 | 1.3
3 | COC(=O)CCCCN1c2cc3[nH]ccc3cc2C2(CC3CCC2C3)C12C=Nc1cc(-c3ccccc3)c3ncccc3c1O2 (centres unmarked) [Compound 13] | 18 | 607 | 1.4
4 | COC(=O)CN1c2cc3ccc([N+](=O)[O-])cc3cc2C2(CC3CCC2C3)C12C=Nc1c(C(F)(F)F)cc3ncccc3c1O2 (centres unmarked) [Compound 14] | 16 | 606 | 1.4
5 | COc1cc2c(c3ccccc13)OC1(C=N2)N(c2ccccc2)c2ccccc2C12CCCC2 (centres unmarked) [Compound 16] | 17 | 606 | 1.2
6 | N#CCN1c2[nH]ccc2C2(CCCCCC2)C12C=Nc1cc(C#N)c3ccccc3c1O2 (centres unmarked) [Compound 17] | 18 | 606 | 1.4
7 | COC(=O)c1cc2c(c3cc[nH]c13)OC1(C=N2)N(C)c2[nH]ccc2C12CCCCC2 (centres unmarked) [Compound 20] | 17 | 603 | 1.4
8 | CCCCN1c2cc(CC)ccc2C2(CC3CCC2C3)C12C=Nc1c(N)cc3occc3c1O2 (centres unmarked) [Compound 23] | 19 | 605 | 1.2
9 | COC(=O)CN1c2cc(Cl)ccc2C2(C3CC4CC(C3)CC2C4)C12C=Nc1ccc3cc4ccc(Br)cc4cc3c1O2 (centres unmarked) [Compound 24] | 18 | 609 | 1.2
10 | Cc1cc2ccncc2c2c1N=CC1(O2)N(C(C)C)c2ccc(Cl)cc2C12CCCC2 (centres unmarked) [Compound 28] | 14 | 595 | 1.7
11 | Cc1cc2c(c3ccnc(C)c13)OC1(C=N2)N(C(C)C)c2cc(Br)ccc2C12CCCCCC2 (centres unmarked) [Compound 29] | 16 | 602 | 1.6
12 | CCC1(CC)c2cc(C(F)(F)F)ccc2N(Cc2ccccc2)C12C=Nc1cc(Cc3ccccc3)c3c(C)cncc3c1O2 (centres unmarked) [Compound 30] | 18 | 589 | 1.6
13 | CCC1(C)c2cc(OC)ccc2N(Cc2ccccc2)C12C=Nc1cc(-c3ccccc3)c3c(OC)nccc3c1O2 (centres unmarked) [Compound 31] | 17 | 619 | 1.7
14 | CCC1(CC)c2ccc(N(C)C)cc2N(CCc2ccccc2)C12C=Nc1c(Cl)cc3cc(OC)ncc3c1O2 (centres unmarked) [Compound 32] | 19 | 590 | 1.7
15 | CC1(C)c2cc3cc(-c4ccsc4)oc3cc2N(CCC#N)C12C=Nc1c(N)cc3ncccc3c1O2 (centres unmarked) [Compound 50] |  | 605 | 1.5
16 | COC(=O)c1cc2ncccc2c2c1N=CC1(O2)N(C)c2c(cc(C(F)(F)F)c(C(F)(F)F)c2C(F)(F)F)C1(C)C (centres unmarked) [Compound 51] | 18 | 609 | 1.4

Next, values leading:

Row | t1/2 (half-value period of absorbance after irradiation) [s] | λ max (maximum absorption wavelength of the colored film) | ε (60 seconds)-ε (0 second) | SMILES
17 | 18 | 603 | 1.4 | CN1c2ccccc2C2(CC3CCC2C3)C12C=Nc1ccc3cccnc3c1O2 (centres unmarked) [Compound 2]
18 | 18 | 603 | 1.3 | CN(C)c1cc2c(c3ccccc13)OC1(C=N2)N(C)c2ccccc2C12CC1CCC2C1 (centres unmarked) [Compound 3]
19 | 18 | 605 | 1.4 | CCCN1c2ccc(C(F)(F)F)cc2C2(C3CC4CC(C3)CC2C4)C12C=Nc1ccc3ccccc3c1O2 (centres unmarked) [Compound 4]
20 | 16 | 598 | 1.7 | CCC1(CC)c2cc(O)cnc2N(C)C12C=Nc1ccc3ncccc3c1O2 (centres unmarked) [Compound 5]
21 | 18 | 601 | 1.8 | N#Cc1cnc2ccc3c(c2c1)OC1(C=N3)N(CCc2ccccc2)c2ccccc2C12CCCCC2 (centres unmarked) [Compound 7]
22 | 18 | 603 | 1.4 | CN1c2cc3occc3cc2C2(CC3CCC2C3)C12C=Nc1ccc3ccccc3c1O2 (centres unmarked) [Compound 8]
23 | 16 | 607 | 1.3 | CN1c2cc3ncc(-c4ccsc4)cc3cc2C2(C3CC4CC(C3)CC2C4)C12C=Nc1ccc3ccccc3c1O2 (centres unmarked) [Compound 15]
24 | 17 | 607 | 1.2 | COc1ccc2c(c1)C1(CCCCC1)C1(C=Nc3ccc4cc5[nH]ccc5cc4c3O1)N2C (centres unmarked) [Compound 19]
25 | 18 | 610 | 1.2 | CN1c2ccc([N+](=O)[O-])cc2C2(CCCCC2)C12C=Nc1ccc3ccccc3c1O2 (centres unmarked) [Compound 21]
26 | 18 | 611 | 1.4 | CN1c2ccccc2C2(CCCCC2)C12C=Nc1cc(Cc3ccccc3)c3ccccc3c1O2 (centres unmarked) [Compound 25]
27 | 17 | 619 | 1.8 | CN1c2ccccc2C2(CCCCC2)C12C=Nc1ccc3cnccc3c1O2 (centres unmarked) [Compound 26]
28 | 15 | 613 | 1.7 | CN1c2c(F)cc(F)cc2C2(CCCCC2)C12C=Nc1ccc3cnccc3c1O2 (centres unmarked) [Compound 27]
29 | 17 | 601 | 1.4 | CN(C)c1cc2c(c3cc4cc[nH]c4cc13)OC1(C=N2)N(C)c2ncc(Cc3ccccc3)cc2C1(C)C (centres unmarked) [Compound 47]
30 | 18 | 610 | 1.4 | CN1c2occ(C#N)c2C(C)(C)C12C=Nc1cc(Cc3ccccc3)c3ncc(Br)cc3c1O2 (centres unmarked) [Compound 48]
31 | 19 | 600 | 1.5 | CN1c2cc(N3CCCC3)ccc2C(C)(C)C12C=Nc1c(C(F)(F)F)cc3ncccc3c1O2 (centres unmarked) [Compound 49]
32 | 18 | 611 | 1.5 | COC(=O)c1ccc2c(c1)C(C)(C)C1(C=Nc3ccc4ncccc4c3O1)N2C (centres unmarked) [Compound 52]
33 | 16 | 615 | 1.7 | CN1c2ccccc2C(C)(C)C12C=Nc1ccc3cnccc3c1O2 (centres unmarked) [Compound 53]
34 | 14 | 609 | 1.5 | CN1c2c(F)cc(F)cc2C(C)(C)C12C=Nc1ccc3cnccc3c1O2 (centres unmarked) [Compound 54]
35 | 13 | 590 | 1.6 | Cc1cc2ccncc2c2c1N=CC1(O2)N(C(C)C)c2ccc(Cl)cc2C1(C)C (centres unmarked) [Compound 55]
